Data as given in paper PMC9404989, “Design and Evaluation of Short Bovine Lactoferrin-Derived Antimicrobial Peptides against Multidrug-Resistant Enterococcus faecium” (Antibiotics, 2022).
No end group written: not given here.

Key:
E. faecalis OG1RF = experiment: MIC assay, E. faecalis OG1RF; type: cell-based; conditions: rifampin and fusidic acid resistant
Protocol: (§1) To determine the MICs of peptides, we used the broth microdilution method described by the Clinical and Laboratory Standards Institute. We made serial dilutions of 10× concentration (10 µL) for each peptide in duplicates in 96-well plates (Cat No. 3595, Corning, New York, NY, USA). We added 90 µL of logarithmic-phase bacteria at 5 × 10^5 CFU/mL (in BHI media) to the peptides and then incubated the plates at 37 °C for 18 h. We measured the OD600 absorbance readings using the Spectra Max i3x spectrophotometer (Molecular Devices, San Jose, CA, USA) and determined the MIC as the peptide concentration that inhibits the growth of bacteria.

[1] = system: human red blood cells (hRBCs); type: cell-based
Protocol: We evaluated the ability of the peptide to cause hemoglobin leakage using the method described in [15]. In brief, we washed human erythrocytes (Rockland Immunochemicals (Limerick, Pottstown, PA, USA)) 3× times in an equal volume of PBS and resuspended them as 2% hRBCs solution. We added 90 µL of the blood cells to 10 µL of the peptide solution (10×) in a 96-well microtiter plate (Cat No. 3595, Corning, New York, NY, USA) and incubated the plates at 37 °C for 1 h. Next, we centrifuged the plates at 500× g for 5 min, transferred 60 µL of the supernatant into a fresh 96-well plate, and read the absorbance at 540 nm. We calculated the percent hemolysis considering 100% hemolysis caused by 1% Triton X-100, and 0% on PBS and using the formula for percentage of hemolysis as: (A540 nm in the peptide solution − A540 nm in PBS)/(A540 nm of 1% Triton X-100-treated sample − A540 nm in PBS) × 100.

[2] = system: E. faecium strain C68 established biofilms; experiment: Confocal microscopy of peptide-treated established biofilms (LIVE/DEAD); type: cell-based, Enterococcus faecium; conditions: 10× MIC, 24 h established biofilms, 24 h treatment
Protocol: We prepared exponential cultures of E. faecium strain C68 (adjusted to 1 × 10^6 CFU/mL) in BHI media (supplemented with 0.2% glucose) from overnight grown cultures. To establish biofilms, we added 1 mL of the bacterial culture to the chambers of cuvettes (borosilicate cover glass, Nunc Cat. No. 155380) and maintained them at 37 °C for 24 h under static conditions. We carefully removed the media from the wells after incubation and then washed the wells with PBS (Gibco, MD, USA) to remove loosely attached planktonic cells. We treated the established biofilms in each well with 100 µL of serially diluted 10× MIC peptide solution (5L and 6L) followed by the addition of 900 μL of BHI media (supplemented with 0.2% glucose) and incubated the cuvettes for an additional 24 h at 37 °C. After incubation, we washed the cuvettes carefully with PBS (Gibco, MD, USA) to remove the planktonic cells and stained the biofilms with 10 µL of LIVE/DEAD kit (Molecular Probes, Life Technologies, Eugene, OR, USA) according to the manufacturer’s instructions. Finally, we visualized the biofilms using a confocal microscope (Zeiss 880) and processed the data via Zen 2010 software (Carl Zeiss, Jena, Germany).

E. faecium strain C68 [3] = experiment: microbe, parasite or virus in culture; type: cell-based, Enterococcus faecium; conditions: strain C68, 18 h
Protocol: as §1
To investigate the activity of peptides in various salt concentrations, we included physiologically relevant salts in the BHI medium.

S. aureus MW2 = experiment: microbe, parasite or virus in culture; type: cell-based, Staphylococcus aureus; conditions: MW2, 18 h
Protocol: as §1

[4] = system: E. faecium strain C68 established biofilms; type: cell-based, Enterococcus faecium; conditions: for established biomass reduced: at 32 µg/mL, 24 h established biofilms
Protocol: We prepared exponential cultures of E. faecium strain C68 (adjusted to 1 × 10^8 CFU/mL) in BHI media (supplemented with 0.2% glucose) from overnight grown cultures. We added 100 µL of the bacterial culture to wells of flat-bottomed 96-well polystyrene microtiter plates (Cat No. 3595, Corning, NY, USA). We then incubated the plates at 37 °C for 24 h in static conditions to allow biofilm formation. After incubation, we carefully pipetted out the media and washed the wells with PBS (Gibco, Waltham, MA, USA) to remove loosely attached planktonic cells. We treated the established biofilms in each well with 10 µL of serially diluted 10× peptide solution, followed by the addition of 90 μL of BHI media (supplemented with 0.2% glucose). The plates were incubated for another 24 h at 37 °C before processing for biomass and live-cell contents. We quantitated the concentration of peptide that disrupts 50% of established biofilms (MBEC50).

E. faecium E007 = experiment: microbe, parasite or virus in culture; type: cell-based, Enterococcus faecium; conditions: tetracycline-resistant strain
Protocol: as §1

E. faecium D29 = experiment: microbe, parasite or virus in culture; type: cell-based, Enterococcus faecium; conditions: ampicillin resistant, vancomycin-sensitive isolate
Protocol: as §1

E. faecium D14 = experiment: microbe, parasite or virus in culture; type: cell-based, Enterococcus faecium; conditions: ampicillin resistant, vancomycin-sensitive isolate
Protocol: as §1

E. faecium D24 = experiment: microbe, parasite or virus in culture; type: cell-based, Enterococcus faecium; conditions: ampicillin resistant, vancomycin-sensitive isolate
Protocol: as §1

E. faecium D25 = experiment: microbe, parasite or virus in culture; type: cell-based, Enterococcus faecium; conditions: ampicillin resistant, vancomycin-sensitive isolate
Protocol: as §1

E. faecium strain C68 [5] = experiment: microbe, parasite or virus in culture; type: cell-based, Enterococcus faecium; conditions: strain C68, 18 h; remark: listed apart in the source
Protocol: as §1

E. faecalis V583 = experiment: microbe, parasite or virus in culture; type: cell-based; conditions: V583, 18 h
Protocol: as §1

E. faecalis MMH594 = experiment: microbe, parasite or virus in culture; type: cell-based; conditions: MMH594, 18 h
Protocol: as §1

[6] = system: E. faecium E007 established biofilms; type: cell-based, Enterococcus faecium; conditions: for concentration killing 50% of live bacteria cells in established biofilms: strain E007, 24 h established biofilms, XTT; for established biomass disrupted: strain E007, at 32 µg/mL; for MBEC50: strain E007, biomass by CV
[7] = strain C68 established biofilms, 24 h

Substance	MIC E. faecalis OG1RF (E. faecalis OG1RF)	HL50 [1]	killing of bacteria inside biofilms (confocal, LIVE/DEAD) [2]	MIC + CaCl2 (2.5 mM) (E. faecium strain C68 [3])	MIC + MgSO4 (1 mM) (E. faecium strain C68 [3])	MIC + NaCl (150 mM) (E. faecium strain C68 [3])	MIC + ZnSO4 (8 µM) (E. faecium strain C68 [3])	MIC S. aureus MW2 (S. aureus MW2)	established biomass reduced [4]	MBEC50 (established biomass) [4, 7]	MIC E007 (E. faecium E007)	MIC D29 (E. faecium D29)	MIC D14 (E. faecium D14)	MIC D24 (E. faecium D24)	MIC D25 (E. faecium D25)	MIC EF C68 (E. faecium strain C68 [5])	MIC Media Only (E. faecium strain C68 [5])	MIC E. faecalis V583 (E. faecalis V583)	MIC E. faecalis MMH594 (E. faecalis MMH594)	concentration killing 50% of live bacteria cells in established biofilms [6]	other results
RRWLWLRRWLWR-NH2 [Peptide 5L]	> 32 µg/mL	56 µg/mL	killed most of the bacteria inside the biofilms	16 µg/mL	8 µg/mL	4 µg/mL	4 µg/mL	> 32 µg/mL	75%	16 µg/mL	4 µg/mL	16 µg/mL	16 µg/mL	8 µg/mL	4 µg/mL	4 µg/mL	4 µg/mL	> 32 µg/mL	> 32 µg/mL	8 µg/mL	live bacteria killed within matured biofilm matrix [4, 7]: 50%; established biomass disrupted [6]: 75%; MBEC50 [6]: 10 µg/mL
RRWLWRLRWLWR-NH2 [Peptide 6L]	> 32 µg/mL	34 µg/mL	killed most of the bacteria inside the biofilms	8 µg/mL	8 µg/mL	4 µg/mL	4 µg/mL	32 µg/mL	75%	16 µg/mL	4 µg/mL	8 µg/mL	8 µg/mL	8 µg/mL	4 µg/mL	4 µg/mL	4 µg/mL	> 32 µg/mL	> 32 µg/mL	8 µg/mL	established biomass disrupted [6]: 75%; MBEC50 [6]: 8 µg/mL
